Consider three compounds from patent US20250082654A1, “AZD3355 (LESOGABERAN) FOR TREATMENT AND PREVENTION OF NONALCOHOLIC STEATOHEPATITIS (NASH), LIVER FIBROSIS, AND OTHER LIVER CONDITIONS” (Icahn School of Medicine at Mount Sinai, priority 2018, published 2025).

Data set [1] has as its system LX-2 cells. The data set is described as follows: Fibrogenic protein expression by western blot and densitometry from cell lysate. It is filed as cell-based, human. To be noted: LX2 cells, 48 or 72 hours, 30 nM or 100 nM AZD3355 or sorafenib. As to the method: (§1) Western blot and RT-qPCR experiments were run in parallel. 150,000 LX-2 cells or 200,000 phHSCs per well were plated on a 6-well plate dish. Cells were starved overnight in DMEM supplemented with 0.1% BSA (without antibiotic). Cells were then incubated with either AZD3355 or sorafenib at the indicated concentration and duration. Cells were harvested and lysed using RIPA buffer (50 mM Tris-HC1 pH8.0, 150 mM NaCl, 1% IGEPAL, 0.5% sodium deoxycholate and 0.1% SDS) along with Pierce Protease Inhibitor Mini Tablets, EDTA-Free (ThermoScientific, IL). Total protein was measured by Bradford colorimetric assay using Protein Assay Dye Reagent Concentrate (Bio-Rad, CA). […] After hybridized with HRP conjugated secondary antibody (either Goat anti-rabbit HRP (Jackson ImmunoResearch Laboratories, PA) or anti-mouse IgG-HRP (Cell Signaling Technology, MA) the membrane was treated with Immobilon Western Chemiluminescent HRP substrate (Millipore, MA) and the signals were captured with Amersham Imager 6000 (GE Healthcare, PA). 210 kD of Col1α1, 72 kD of MMP2 and 42 kD of α-SMA bands were recognized by respective antibody. 37 kD band of GAPDH was probed as loading control. For densitometric measurement of the protein bands, images were exported and analyzed using ImageJ 1.50 f software and bands were normalized to the loading control, GAPDH.

In another data set the test system is phHSCs. Described as above. It counts as cell-based, human. Particulars: 48 or 72 hours. As to the method:
as §1

The subject of the next data set is human liver slices. The data set is described as follows: Liver slice assay, histopathology and H&E staining. It is filed as cell-based. To be noted: 24 hours. Here is the method: Ten human liver pieces were collected from the Mount Sinai biorepository. The samples were prepared by coring the liver with 8 mm cylindrical coring tools. The liver cores were kept in ice cold WE medium, with GlutaMAX supplemental. A liver core was then mounted on a specimen plate with cyanoacrylate adhesive. Liver slices (approximately 200 μm in thickness) were placed in ice cold Krebs-Henesleit buffer in the presence of carbogen gas. There was then a 1 hour pre-incubation in WE GlutaMAX media with gentamicin in 95% O2 and 5% CO2 at 37° C. in a humidified rocker chamber to restore ATP levels.
The liver slices were then cultured in WE GlutaMAX media with gentamicin in 95% O2 and 5% CO2 at 37° C. in a humidified rocker chamber with slow 70 rpm rocking in the presence of AZD3355 in the amounts of 250 nM, 500 nM, 1000 nM, or 2000 nM, or sorafenib at 1000 nM., or control vehicle (saline water).
After 24 hours, the tissue slices were harvested for either RNA isolation and quantitative PCR for measurements of Col1α1, TNFα, and IL-6 expression, or for histopathology and hematoxylin and eosin (H&E) staining as described in Example 3.

In data set [2] the test system is LX-2 cells. The data set is described as follows: Fibrogenic gene expression by RT-qPCR. It counts as cell-based, human. To be noted: 48 and 72 hours. Here is the method: The following fibrogenic gene expressions were quantified by RT-qPCR: • 1. Collagen1α1 (Col1α1); • 2. Alpha Smooth Muscle Actin (αSMA); • 3. Beta PDGF receptor (β-PDGFR); • 4. Transforming growth factor-β receptor1 (TGFβ-R1); • 5. Tissue inhibitor of metalloproteinase—1 (TIMP1); • 6. Tissue inhibitor of metalloproteinase—2 (TIMP2); and • 7. Matrix Metalloproteinase 2 (MMP2).
The kinase inhibitor sorafenib (7.5 μM concentration) was used as positive control and run in parallel. 150,000 LX-2 cells or 200,000 phHSCs per well were plated on 6-well plate dish. Cells were starved overnight in DMEM supplemented with 0.1% BSA (without antibiotic). Cells were then incubated with either AZD3355 or sorafenib at the indicated concentration and duration. Cells were harvested and total RNA was extracted using RNeasy Mini Kit (Qiagen, CA). 0.5 μg of total RNA was used for reverse transcription with ‘RNA to cDNA EcoDry Premix (Double Primed) Kit’ (Clontech, CA). Expression of fibrogenic genes were measured by qPCR using custom designed primers (Sigma-Aldrich, MO) and iQ SYBR Green Supermix (Bio-Rad, CA) on a LightCycler 480 II (Roche Diagnostics Corporation, IN) instrument. Glyceraldehyde-3-phosphate dehydrogenase (GAPDH), […] (RPII), α-tubulin and β-actin genes were tested to determine the best fit for housekeeping gene of the study. […]

Data set [3] deals with carbon tetrachloride-induced liver injury. Particulars: in vivo; cited from earlier work.
The subject of the next data set is NASH model mice. Kind of data set: NASH mouse model, histopathological scoring of liver sections. To be noted: 30 mg/kg daily; for Hepatocyte ballooning ± SE: score 0-2; for Portal inflammation ± SE / Lobular Inflammation ± SE / Steatosis ± SE: score 0-3; for Fibrosis Stage ± SE: score 0-4; for NAFLD activity score (NAS) ± SE: score 0-8. It is filed as in vivo. As to the method: Four separate groups of mice were given either 0.5% methylcellulose (as Vehicle) or AZD3355 at 10 mg/kg (low dose) body weight of mice or 30 mg/kg (high dose) body weight of mice by twice daily (BID (5 days/week)) and OCA at 30 mg/kg body weight of mice by daily (QD (5 days/week)) through oral route for up to next 12 weeks (week 13 to week 24). Them last group of mice were not given any drug or vehicle treatment, as No Tx—24 weeks and maintained in parallel with treatment/vehicle groups. Usually all doses were given at early morning and the second daily dose of AZD3355 at evening (10 hours of intervals). All animals were closely monitored the health conditions and behavior.
A piece of tissue from large liver lobe was fixed in 10% Formalin Buffered (Astral Diagnostics Incorporated NJ) embedded in paraffin and microtome sectioning were performed. Slides containing tissue sections were baked at 60° C. for 1 hour and re-hydrated through xylene followed by graded ethanol (100%, 95%, 85% and 70%) into distilled water and processed in either Picrosirius red/Fast green or hematoxylin and eosin staining.
A total of 2 sections/animal were stained with H&E staining performed by standard protocol.
Steatosis, hepatocyte ballooning, lobular inflammation, portal inflammation and fibrosis of picroserious red/fast green and H&E stained liver section were scored according to the NASH Clinical Research Network (NASH CRN) scoring system in a blinded fashion by an expert hepato-pathologist in Icahn School of Medicine at Mount Sinai. NAFLD activity score (NAS) was calculated according to Brunt criteria and range from 0-8. NAS was calculated by the sum of scores of steatosis (0-3), hepatocyte ballooning (0-2) and lobular inflammation (0-3). NAS score of >5.0 strongly correlated with “definite-NASH” whereas <3 correlated with “not-NASH”. Fibrosis (0-4) or portal inflammation (0-3) scores were assessed separately and not included in NAS.

Regarding `CNC(=O)c1cc(Oc2ccc(NC(=O)Nc3ccc(Cl)c(C(F)(F)F)c3)cc2)ccn1` [Sorafenib, sorafenib], the “protein expression of Col1α1 (western blot)” value in the data set with LX-2 cells [1] and in the data set with phHSCs was “no change” in each case. Further, the “liver cells viability (H&E)” value in the data set with human liver slices is listed as “did not change”. Moreover, the “gene expression of pro-fibrogenic genes Col1α1, αSMA, βPDGF-R, TGFβ-R1, TIMP1, TIMP2, MMP2” value in the data set with LX-2 cells [2] was “downregulated”.

Take `NCC(CC(=O)O)c1ccc(Cl)cc1` (stereo not shown) [baclofen]: the “liver injury due to carbon tetrachloride” value in data set [3] is “attenuates injury”.

For `CC[C@H]1[C@@H](O)[C@@H]2[C@H](CC[C@]3(C)[C@@H]([C@H](C)CCC(=O)O)CC[C@@H]23)[C@@]2(C)CC[C@@H](O)C[C@@H]12` [OCA, Obeticholic acid, reference compound], the “Hepatocyte ballooning ± SE” value with NASH model mice (♀ Mice, vehicle 1.2 ± 0.1) was found to be 1.1 ± 0.2; with NASH model mice (♂ Mice, vehicle 1.7 ± 0.1) it was 1.0 ± 0.2. The “Portal inflammation ± SE” value in the data set with NASH model mice (♀ Mice, vehicle 1.6 ± 0.1) was 1.0 ± 0.2; in the data set on NASH model mice (♂ Mice, vehicle 2.0 ± 0.1) it was 1.3 ± 0.2. Also, the “Lobular Inflammation ± SE” value is recorded as 1.6 ± 0.1 with NASH model mice (♀ Mice, vehicle 2.3 ± 0.1) and 1.9 ± 0.2 in the data set on NASH model mice (♂ Mice, vehicle 2.8 ± 0.1). The “Steatosis ± SE” value in the data set with NASH model mice (♀ Mice, vehicle 2.5 ± 0.1) came out at 2.0 ± 0.2; in the data set with NASH model mice (♂ Mice, vehicle 2.7 ± 0.1), 2.0 ± 0.2. The “Fibrosis Stage ± SE” value in the data set with NASH model mice (♀ Mice, vehicle 3.0 ± 0.1) was found to be 2.2 ± 0.1; in the data set on NASH model mice (♂ Mice, vehicle 3.3 ± 0.1), 2.9 ± 0.1. Moreover, the “NAFLD activity score (NAS) ± SE” value came to 4.7 ± 0.6 with NASH model mice (♀ Mice, vehicle 6.1 ± 0.4) and 5.0 ± 0.6 in the data set with NASH model mice (♂ Mice, vehicle 7.2 ± 0.3). Besides, the “Steatohepatitis Grade ± SE” value in the data set with NASH model mice (♀ Mice, vehicle 1.8 ± 0.2) is on record as 1.4 ± 0.3; in the data set on NASH model mice (♂ Mice, vehicle 2.6 ± 0.2) it was 1.5 ± 0.3.
